Here are results for 91 compounds from a melting point compilation (Tetko et al.; mined from patent text by program, amines drawn as free bases though some values may be those of a salt).

On to `COc1cc(OC)c(/C=C/S(=O)(=O)Cc2ccc(OC)c(NC(C)C(=O)O)c2)c(OC)c1` (stereo unspecified), for which the melting point was 176 to 180 °C.
As to `C=C1C[C@@H]2C(=O)NC(=O)[C@@H]2C1`, the melting point lay in the range of 135 to 137 °C.
For the compound `COc1cc(Nc2c(C#N)cnc3cc(-c4ccc(CN5CCC(CC(=O)O)CC5)cc4)ccc23)c(Cl)cc1Cl`, the melting point fell in the range of 239 to 240 °C.
`CN(C)c1ccc2nc(-c3cccc4ccccc34)[nH]c(=O)c2c1` returned a melting point of 254 to 255 °C.
The figure for `Cc1c(Cl)cc([N+](=O)[O-])c(NC(C)C)c1[N+](=O)[O-]` is 69 to 73 °C; for `Cc1cc(=O)n(C)c2ccc(OCCCN3CCC(NC(=O)c4ccccc4)CC3)cc12` it is 188 to 190 °C; for `OC1CCc2cc3ccccc3n2C1` (stereo unspecified) it is 99 to 100 °C.
Under `COc1ccc2c(cccc2[C@H]2CO[C@H](CCCNC(=O)OCC(=O)NC3CC3)OC2)c1` stands 176 °C; under `CCCNC(=O)C(C)NC(=O)C(C)NC(=O)C(C)NC(=O)OCc1ccccc1` (stereo unspecified), 268 to 269 °C; under `CC(C)c1cc(-c2ccc(F)cc2)nc(O)n1`, 215 to 217 °C.
Consider `CC(=NOCCO)c1ccc(-c2ccc(F)cc2)cc1`, for which the melting point lay in the range of 133 to 134 °C.
Under `CCCCOc1ccc(-c2ncc(C(=O)OCC)cn2)cc1` stands 99.1 °C; under `O=C(CN1CCC(Cc2ccc(F)cc2)CC1)Nc1ccc2[nH]c(=O)oc2c1`, 228 to 231 °C; under `O=S(=O)(Nc1cccc(OCc2ncc3ccccc3n2)c1)C(F)(F)F`, 140 to 150 °C.
The figure for `COc1ccc(C(=O)C(Cl)=NO)cc1` is 118 to 125 °C; for `COC(C)(C)C(=NO)n1ccnc1` it is 155 to 160 °C; for `COC(=O)CCCc1cc2cc(Cl)ccc2n1S(=O)(=O)c1ccccc1` it is 109 to 112 °C.
`CC#CNc1c([N+](=O)[O-])cc(C(F)(F)F)c(Cl)c1[N+](=O)[O-]` came in with a melting point of 86 to 87 °C.
In turn, `Nc1nc2ccccc2c2c1ncn2CC1(O)CCOCC1` gave a melting point of 260 to 262 °C.
The figure for `CCOC(=O)ON=C1Cc2ccccc2N(C(N)=O)c2ccccc21` is 189 to 190 °C.
`COc1ccc(C(=C/C=C/C(=O)O)c2ccc(OC)c(OC)c2)cc1OC` came in with a melting point of 174 to 176 °C.
Regarding `COCCNC(=O)c1ccc(C(=O)NS(=O)(=O)c2ccc(CCNC(=O)CCC(C)C)cc2)cn1`, the melting point was 154 to 157 °C.
In turn, `O=c1ccc(S(=O)(=O)n2nc(Cl)c3ccccc32)n[nH]1` came in with a melting point of 238 to 239 °C.
In the case of `CCSc1nn2ccccc2c1C(C)=O`, the melting point was in the range of 84 to 85 °C.
Take `NCC1Cc2cc(-c3ccccc3Cl)cc(F)c2O1` (stereo unspecified): the melting point was > 250 °C.
Under `Cc1cc(C)n(-c2nnc3cc(Cl)ccc3n2)n1` stands 174 °C; under `COC1(C)CCc2cc(OC(=O)c3ccccc3)c(C)c(C)c2O1` (stereo unspecified), 102 °C; under `CC(=O)C1=Cc2ccccc2NN=C1`, 66 to 68 °C.
Regarding `CCCc1c(OCCCOc2ccc(-c3cocn3)c(OC)c2CCC)ccc2c1OC(C(=O)O)CC2` (stereo unspecified), the melting point lay in the range of 136 to 139 °C.
`O=C(CO)c1ccc(F)cc1` displayed a melting point of 116 to 117 °C.
The figure for `COC(=O)c1cc(OC(C)C)nn1Cc1ccc(Cl)cc1Cl` is 89 to 90 °C; for `CCOc1c(C(=O)O)cnc2nn(C)cc12` it is 222 to 225 °C; for `Cc1cc(C(=O)O)ccc1-c1c(C)cccc1C` it is 172 to 173 °C.
In the case of `CC(C(=O)O)c1ccc(-c2ccc(OCc3nc4ccccc4s3)cc2)cc1` (stereo unspecified), the melting point lay within 199 to 200 °C.
The compound `Nc1cc(F)cc2cc(C(=O)NCC(F)(F)C(F)(F)C(F)(F)F)cnc12` displayed a melting point of 202 to 204 °C.
As for `O=C(O)CCc1cccc2ccccc12`, the melting point fell in the range of 151 to 153 °C.
Under `CC(C)(C)NC(=O)c1ccccc1C(C(=O)C(C)(C)C)c1ccccc1` (stereo unspecified) stands 157 to 161 °C.
On to `CCCN1NCc2c(C3C(=O)Nc4ccc(F)cc43)ncnc21` (stereo unspecified), for which the melting point was in the range of 288 to 292 °C.
The compound `COc1ccc(C(=O)Nc2ccc3ccc(OC4CCN(C)CC4)nc3n2)cc1` came in with a melting point of 200 °C.
Take `CN(C)CCCn1c(=O)c2c(N)c3c(=O)c4ccccc4c(=O)c3c(N)c2c1=O`: the melting point lay within 215 to 216 °C.
Compound `Cc1cc2oc(=O)c3c(c2cc1Cl)CC(N1CC2CCCC(C2)C1)NC3` (stereo unspecified) displayed a melting point of 147 to 149 °C.
The figure for `O=C(Cc1cccs1)NCc1cccc2c1C(=O)N(C1CCC(=O)NC1=O)C2=O` (stereo unspecified) is 171 to 173 °C; for `Cc1ccc(S(=O)(=O)n2ccc3cc(C#N)ccc32)cc1` it is 129 to 131 °C.
With `CC(C)(C)OC(=O)N1CC(O)CN1C(=O)OC(C)(C)C`, the melting point lay in the range of 100 to 102 °C.
`COc1ccc(CCC(=O)CCC(Cc2ccc(OC)c(OC)c2)[N+](=O)[O-])cc1` (stereo unspecified) yielded a melting point of 87 to 89 °C.
The figure for `O=C1c2cccc([N+](=O)[O-])c2C(=O)N1c1ccc(OC(F)(F)F)cc1` is 149 to 150 °C; for `Cn1cc(C(N)=O)c(=O)c2sc(Cl)cc21` it is 325 to 327 °C.
In the case of `CCCOc1ccc(Cc2nn(-c3ccccc3Cl)c(=O)o2)cc1`, the melting point came out at 68 °C.
On to `FC(F)(F)c1ccc(Nc2ccccc2C=C(Br)Br)cc1`, for which the melting point was in the range of 74 to 75 °C.
With `CCc1cc(C)cc(CC)c1C1C(=O)CC(CC(C)S(=O)(=O)CC)CC1=O` (stereo unspecified), the melting point fell in the range of 62 to 65 °C.
The compound `S=c1[nH]ccn1CCCc1cccs1` had a melting point of 94 to 96.5 °C.
`NC(=NCC(F)(F)F)Nc1ccnc(CSCCN2C(=O)c3ccccc3C2=O)n1`: the melting point lay in the range of 167 to 168 °C.
On to `CCCCn1c(C)c(C)cc(NC(=O)c2ccc(F)cc2)c1=O`, for which the melting point is 129 to 130 °C.
Under `O=P(O)(O)COc1ccc(-c2c3ccccc3cc3sc4ccccc4c23)cc1` stands 240 to 242 °C; under `CN(C)C(=O)NS(=O)(=O)C=Cc1ccccc1`, 160 to 162 °C; under `O=C(c1ccccc1)N1CCCC(c2ccc(Cl)cc2)=N1`, 117 to 118 °C.
Under `CC(C)OC(=O)Nc1cc(-c2ccnc3c(C(=O)c4cccs4)cnn23)ccc1N(C)C` stands 164 to 165 °C; under `N#Cc1ccc(Oc2ccccc2NC(=O)c2cccc([N+](=O)[O-])c2)cc1C#N`, 176 to 178 °C.
`OCc1nccc(N2CCCC2)c1Cl` came in with a melting point of 85 to 86 °C.
`Cc1ccccc1NC(=O)NCc1cccc2c1C(=O)N(C1CCC(=O)NC1=O)C2=O` (stereo unspecified): the melting point is > 260 °C.
The figure for `COc1ccc(OC)c2c1CC(C(=O)O)CC2=O` (stereo unspecified) is 199 to 201 °C; for `O=C1NCC=Cc2c1[nH]c(Br)c2Br` it is 170 to 175 °C.
For the compound `Cc1nc(-n2ccccc2=O)sc1C(=O)NCc1ccc(F)cc1`, the melting point lay within 170 to 172 °C.
On to `CCOC(=O)c1cc(F)c(N2CCC(NC(=O)OC(C)(C)C)C2)cc1F` (stereo unspecified), for which the melting point was in the range of 98 to 100 °C.
As to `Cc1cc(SCc2ccnc3sc(-c4ccc(C(F)(F)F)cc4)nc23)ccc1OCC(=O)O`, the melting point lay within 82 to 85 °C.
Turning to `CCCc1nn(-c2ccc(C(F)(F)F)cn2)cc1CCCOc1cccc(CC(=O)O)c1`, the melting point lay in the range of 106 to 107 °C.
Under `CC(C)(C)OC(=O)N(CCCC(=O)NO)Cc1cc2nc(-c3cccc4[nH]ncc34)nc(N3CCOCC3)c2s1` stands 149 to 152 °C; under `COc1ccc2c(c1)N(c1ccc(F)cc1)C(=O)C2(CCc1nnn[nH]1)NC(=O)c1cc2ccccc2cn1` (stereo unspecified), 154 to 160 °C.
In turn, `COc1ccc(-c2[nH]c3ccc(Cl)cc3c2-c2ccc(S(C)(=O)=O)cc2)cc1` returned a melting point of 246 to 248 °C.
`CC(C)(C)OC(=O)NCCCCCCCBr` came in with a melting point of 48 to 49 °C.
Regarding `CCOC(=O)C(=CNC1CC1)C(=O)c1cc(F)c(F)c(OC)c1F`, the melting point was in the range of 56 to 58 °C.
Compound `CS(=O)(=O)c1cc(C(=O)N=C(N)N)ccc1N1CCC(N)CC1` came in with a melting point of 239 to 241 °C.
With `CCc1ccc2c(-c3ccccc3)onc2c1`, the melting point is 41 to 43 °C.
Take `COc1ccc2c(N3CCCNCC3)noc2c1`: the melting point fell in the range of 74 to 75 °C.
`COc1cccc(N(C)C(=O)Oc2ccc(C(F)(F)F)cc2)n1` displayed a melting point of 85 to 86 °C.
The figure for `COc1ccc(CC(=O)N2CCC[C@H]2C(=O)O)cc1` is 138 to 139 °C.
Under `CC(C)(C)N(NC(=O)c1ccccn1)C(=O)c1ccc(Cl)c(Cl)c1` stands 175 to 178 °C.
In turn, `CC(CC(=O)NC(=O)OC(C)(C)C)Nc1ccccc1` (stereo unspecified) showed a melting point of 117 to 118 °C.
For `N#CCCNC(=O)c1cccc(-c2cccc(Oc3cc(Cl)ccc3Cl)n2)c1`, the melting point lay within 149 to 150 °C.
As to `Cc1ccoc1C(=O)Nc1c(C)cc(N2CCCOCC2)nc1N1CC[C@@H](F)C1`, the melting point lay in the range of 93 to 96 °C.
Consider `O=C(O)COc1cccc2c1CCc1sc(S(=O)(=O)C(c3cccc(F)c3)c3cccc(F)c3)nc1-2`, for which the melting point was 213 to 214 °C.
`Oc1ccc(CCCn2ccnc2)cc1` showed a melting point of 158 to 160 °C.
As for `CC(C)c1c(C=CC2CC(O)CC(O)O2)n(CC2CCCCC2)c(=O)c2ccccc12` (mixture of isomers), the melting point lay in the range of 207 to 209 °C.
Take `COc1cc(Cl)c(C(=O)c2c(C)ccc(OC)c2OC(=O)Cc2ccccc2)c(Cl)c1`: the melting point was 106 °C.
`CC(n1ncnn1)C(O)(c1ccc(OC(F)(F)F)cc1)c1ccc(OC(F)(F)F)cc1` (stereo unspecified) showed a melting point of 55 to 58 °C.
Take `CCOC(=O)c1cccc2c1C(=O)N(C)Cc1c(C(=O)OCC)ncn1-2`: the melting point lay in the range of 136 to 140 °C.
`C#CC[C@H](c1nc2cc(Cl)ccc2c(=O)n1Nc1ccccc1)N(CCCN)C(=O)c1cc(F)cc(F)c1F` gave a melting point of 168 to 170 °C.
For `Cn1cc(-c2ncc(-c3ccc4cc(OCC(=O)O)ccc4c3)o2)c2ccccc21`, the melting point lay within 269 to 272 °C.
In turn, `O=C(O)c1nnn(Cc2ccccc2)n1` came in with a melting point of 127 to 130 °C.
In the case of `C=CCONC(=O)c1nc(-c2ccc(Cl)c(OC)c2F)cc(N)c1Cl`, the melting point lay within 169 to 172 °C.
For the compound `O=C1CSCC(C(=O)O)N1` (stereo unspecified), the melting point lay in the range of 152 to 153 °C.
